From article PMC13350973, “Allosteric ensembles elucidate mechanisms of inhibition in the human soluble epoxide hydrolase” (Communications Biology, 2026)
Residue numbers refer to the chain shown, from its start.

Experiments:
[1] = target: T1, human soluble epoxide hydrolase (sEH) C-terminal domain, M3 mutant (Homo sapiens, UniProt P34913, R410A/C423S/S439A/R440A/K495A); test: UV spectra of washed covalent adduct of purified protein; fluorometric PHOME specific activity assay; type: binding
T1 construct: gene EPHX2; CTD, amino acids 230–555
T1 sequence (P34913 230-555 R410A/C423S/S439A/R440A/K495A): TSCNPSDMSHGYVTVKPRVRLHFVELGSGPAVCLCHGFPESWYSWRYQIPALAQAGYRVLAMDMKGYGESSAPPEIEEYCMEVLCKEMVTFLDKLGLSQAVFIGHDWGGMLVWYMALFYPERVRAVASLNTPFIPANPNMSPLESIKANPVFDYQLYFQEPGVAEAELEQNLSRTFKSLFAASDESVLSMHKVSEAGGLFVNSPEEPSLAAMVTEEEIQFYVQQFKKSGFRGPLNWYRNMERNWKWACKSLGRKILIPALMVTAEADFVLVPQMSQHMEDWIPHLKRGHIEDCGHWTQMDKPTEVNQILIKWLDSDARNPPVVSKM

[2] = target: T2, human soluble epoxide hydrolase (sEH) C-terminal domain (Homo sapiens, UniProt P34913); test: spectrofluorometric hydrolysis assay with purified sEH CTD; type: biochemical
T2 construct: gene EPHX2; CTD, amino acids 230–555
T2 sequence (P34913 230-555): T1 sequence (P34913 230-555 R410A/C423S/S439A/R440A/K495A) with A181R, S194C, A210S, A211R, A266K

[3] = target: T2, human soluble epoxide hydrolase (sEH) C-terminal domain; test: single injection method kinetic ITC (KM); type: biochemical
[4] = target: T3, human soluble epoxide hydrolase (sEH) C-terminal domain (Homo sapiens, UniProt P34913, C423S); test: single injection method kinetic ITC (KM); type: biochemical
T3 construct: gene EPHX2; CTD, amino acids 230–555
T3 sequence (P34913 230-555 C423S): T1 sequence (P34913 230-555 R410A/C423S/S439A/R440A/K495A) with A181R, A210S, A211R, A266K

[5] = target: T4, human soluble epoxide hydrolase (sEH) C-terminal domain (Homo sapiens, UniProt P34913, C522S); test: single injection method kinetic ITC (KM); type: biochemical
T4 construct: gene EPHX2; CTD, amino acids 230–555
T4 sequence (P34913 230-555 C522S): T1 sequence (P34913 230-555 R410A/C423S/S439A/R440A/K495A) with A181R, S194C, A210S, A211R, A266K, C293S

## CCCCC/C=C/C=C1/C(=O)C=C[C@@H]1C/C=C\CCCC(=O)O [15d-PGJ2]
[1]
  UV spectra of washed covalent adduct of purified protein; fluorometric PHOME spe: 8.2 fold reduction in enzymatic specific activity

## COc1ccc2cc(C(C#N)OC(=O)CC3OC3c3ccccc3)ccc2c1 (centres unmarked) [PHOME, 3-phenyl-cyano(6-methoxy-2-naphthalenyl)methylester-2-oxiraneacetic acid]
[2]
  spectrofluorometric hydrolysis assay with purified sEH CTD: (PHOME), which upon sEH enzymatic hydrolysis releases the fluorescent product 6-methoxy-2-naphtaldeyde (6M2N)

## CCCCCC1OC1C/C=C\C/C=C\C/C=C\CCCC(=O)O (centres unmarked) [14(15)-EET]
[3]
  Km: 11.2 ± 0.46 µM
[4]
  Km: 14.6 ± 0.52 µM
[5]
  Km: 24 ± 2.58 µM
